Assay results as given in US20250114338A1, “TETRAHYDRO-PYRIDO[3,4-b]INDOLE ESTROGEN RECEPTOR MODULATORS AND USES THEREOF” (Genentech, Inc., priority 2014, published 2025).

Tests used:
[1] = target: estrogen receptor alpha (ESR1) in MCF7 breast cancer cells (Homo sapiens (Human), UniProt P03372); test: Breast Cancer Cell ERa High Content Fluorescence Imaging Degradation Assay (Example 901); format: cell-based; conditions: 4 hours, plateau of maximal effect, 0% = DMSO, 100% change = 5 nM Fulvestrant
Chain of estrogen receptor alpha (ESR1) in MCF7 breast cancer cells (P03372 whole entry): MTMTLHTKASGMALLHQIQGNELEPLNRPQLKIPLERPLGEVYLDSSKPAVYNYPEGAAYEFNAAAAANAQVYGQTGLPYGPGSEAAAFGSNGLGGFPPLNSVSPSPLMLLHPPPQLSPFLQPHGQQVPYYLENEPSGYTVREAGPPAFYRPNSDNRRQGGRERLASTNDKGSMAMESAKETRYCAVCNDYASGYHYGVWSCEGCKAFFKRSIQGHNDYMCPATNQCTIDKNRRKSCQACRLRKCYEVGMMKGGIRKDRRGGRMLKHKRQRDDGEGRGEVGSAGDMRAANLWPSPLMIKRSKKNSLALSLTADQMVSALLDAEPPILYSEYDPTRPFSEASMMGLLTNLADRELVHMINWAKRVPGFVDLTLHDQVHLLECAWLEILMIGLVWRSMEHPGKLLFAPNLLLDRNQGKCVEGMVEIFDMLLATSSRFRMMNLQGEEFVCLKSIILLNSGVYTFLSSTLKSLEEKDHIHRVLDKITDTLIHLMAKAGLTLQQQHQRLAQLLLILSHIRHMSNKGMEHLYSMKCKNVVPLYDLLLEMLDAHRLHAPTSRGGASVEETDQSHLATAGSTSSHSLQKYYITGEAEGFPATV
Method: Where more than one name is associated with a Formula I compound or intermediate, the chemical structure shall define the compound. […] Cell plates were incubated at 37° C., for 4 hours. Fixation and permeabilization were carried out using a Biotek EL406 plate washer and dispenser as follows. […] Well contents were aspirated and washed 3 times with 100 μL/well of PBS. […] Samples were incubated for 2 hours at room temperature. […] Samples were incubated for 2 hours at room temperature. […] Quantitative fluorescence imaging of ESR1 was carried out using a Cellomics Arrayscan V (Thermo). […] Channel 1 (DNA stain) was used to define the nuclear region (Circ). […] The “Robust Fit” method was used to define the inflexion point of curve (EC50) and the plateau of the maximal effect (Sinf).

ER-alpha MCF7 = ER-alpha MCF7 HCS EC50; stated as measured by in vitro cell proliferation assays of Examples 902 and 903; format: cell-based; conditions: Homo sapiens
Outline: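 MCF7 cells seeded 1000-2000 cells/well for 16 h, then treated with nine-point 1:2 DMSO dilution series in quadruplicate at 37 °C, 5% CO2 for 4 days. Viable cells quantified by CellTiter-Glo ATP luminescence; EC50 calculated. Controls: fulvestrant at final 100 nM, DMSO 0.2% v/v.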

SMILES | ER-alpha MCF7 HCS Sinf (%) [1] | also measured
CC(C)C(=O)N1[C@H](c2c(F)cc(OCCN3CC(CF)C3)cc2F)c2[nH]c3ccccc3c2C[C@H]1C [Example 103, 1-((1R,3R)-1-(2,6-difluoro-4-(2-(3-(fluoromethyl)azetidin-1-yl)ethoxy)phenyl)-3-methyl-3,4-dihydro-1H-pyrido[3,4-b]indol-2(9H)-yl)-2-methylpropan-1-one] | −91.8% | EC50 (ER-alpha MCF7; MCF7 cells, Table 1): 0.11 nM
C[C@@H]1Cc2c([nH]c3ccccc23)[C@@H](c2c(F)cc(OCCN3CC(CF)C3)cc2F)N1C(=O)C(C)(C)F [Example 104, 1-((1R,3R)-1-(2,6-difluoro-4-(2-(3-(fluoromethyl)azetidin-1-yl)ethoxy)phenyl)-3-methyl-3,4-dihydro-1H-pyrido[3,4-b]indol-2(9H)-yl)-2-fluoro-2-methylpropan-1-one] | −95.4% | 
C[C@@H]1Cc2c([nH]c3ccccc23)[C@@H](c2c(F)cc(OCCN3CC(C(F)F)C3)cc2F)N1CC(C)(C)F [Example 105, (1R,3R)-1-(4-(2-(3-(difluoromethyl)azetidin-1-yl)ethoxy)-2,6-difluorophenyl)-2-(2-fluoro-2-methylpropyl)-3-methyl-2,3,4,9-tetrahydro-1H-pyrido[3,4-b]indole] | −94% | 
C[C@@H]1Cc2c([nH]c3ccccc23)[C@@H](c2c(F)cc(OC3CN(CCCCl)C3)cc2F)N1CC(C)(C)F [Example 106, (1R,3R)-1-(4-((1-(3-chloropropyl)azetidin-3-yl)oxy)-2,6-difluorophenyl)-2-(2-fluoro-2-methylpropyl)-3-methyl-2,3,4,9-tetrahydro-1H-pyrido[3,4-b]indole] | −90.4% | 
CCCN1CC(Oc2cc(F)c([C@@H]3c4[nH]c5ccccc5c4C[C@@H](C)N3CC(C)(C)F)c(F)c2)C1 [Example 107, (1R,3R)-1-(2,6-difluoro-4-((1-propylazetidin-3-yl)oxy)phenyl)-2-(2-fluoro-2-methylpropyl)-3-methyl-2,3,4,9-tetrahydro-1H-pyrido[3,4-b]indole] | −97.6% | 
C[C@@H]1Cc2c([nH]c3ccccc23)[C@@H](c2c(F)cc(OC[C@H](C)N3CC[C@@H](CF)C3)cc2F)N1CC(C)(C)F [Example 108, (1R,3R)-1-(2,6-difluoro-4-((S)-2-((R)-3-(fluoromethyl)pyrrolidin-1-yl)propoxy)phenyl)-2-(2-fluoro-2-methylpropyl)-3-methyl-2,3,4,9-tetrahydro-1H-pyrido[3,4-b]indole] | −79.3% | 
C[C@@H]1Cc2c([nH]c3ccccc23)[C@@H](c2c(F)cc(OCCN3CC[C@@H](CF)C3)cc2F)N1CC(C)(C)F [Example 109, (1R,3R)-1-(2,6-difluoro-4-(2-((R)-3-(fluoromethyl)pyrrolidin-1-yl)ethoxy)phenyl)-2-(2-fluoro-2-methylpropyl)-3-methyl-2,3,4,9-tetrahydro-1H-pyrido[3,4-b]indole] | −86.5% | 
C[C@@H]1Cc2c([nH]c3ccccc23)[C@@H](c2c(F)cc(OCCN3CC(CF)C3)cc2F)N1CC1CCC1 [Example 113, (1R,3R)-2-(cyclobutylmethyl)-1-(2,6-difluoro-4-(2-(3-(fluoromethyl)azetidin-1-yl)ethoxy)phenyl)-3-methyl-2,3,4,9-tetrahydro-1H-pyrido[3,4-b]indole] | −94.8% | EC50 (ER-alpha MCF7; MCF7, MCF7 cells, Table 1): 6.18 nM
C[C@@H]1Cc2c([nH]c3ccccc23)[C@@H](c2c(F)cc(OCCN3CC(CF)C3)cc2F)N1CC1COC1 [Example 115, (1R,3R)-1-(2,6-difluoro-4-(2-(3-(fluoromethyl)azetidin-1-yl)ethoxy)phenyl)-3-methyl-2-(oxetan-3-ylmethyl)-2,3,4,9-tetrahydro-1H-pyrido[3,4-b]indole] | −95.5% | EC50 (ER-alpha MCF7; MCF7, MCF7 cells, Table 1): 23.1 nM
C[C@@H]1Cc2c([nH]c3ccccc23)[C@@H](c2c(F)cc(OCCN3CC(CF)C3)cc2F)N1C1COC1 [Example 116, (1R,3R)-1-(2,6-difluoro-4-(2-(3-(fluoromethyl)azetidin-1-yl)ethoxy)phenyl)-3-methyl-2-(oxetan-3-yl)-2,3,4,9-tetrahydro-1H-pyrido[3,4-b]indole] | −85% | EC50 (ER-alpha MCF7; MCF7, MCF7 cells, Table 1): 41.4 nM
C[C@@H]1Cc2c([nH]c3ccccc23)[C@@H](c2c(F)cc(OCCN3CCCC3)cc2F)N1CC(C)(C)F [Example 117, (1R,3R)-1-(2,6-difluoro-4-(2-(pyrrolidin-1-yl)ethoxy)phenyl)-2-(2-fluoro-2-methylpropyl)-3-methyl-2,3,4,9-tetrahydro-1H-pyrido[3,4-b]indole] | −71.7% | 
C[C@@H]1Cc2c([nH]c3ccccc23)[C@@H](c2c(F)cc(OCCN3CCCCC3)cc2F)N1CC(C)(C)F [Example 118, (1R,3R)-1-(2,6-difluoro-4-(2-(piperidin-1-yl)ethoxy)phenyl)-2-(2-fluoro-2-methylpropyl)-3-methyl-2,3,4,9-tetrahydro-1H-pyrido[3,4-b]indole] | −72.2% | 
C[C@@H]1Cc2c([nH]c3ccccc23)[C@@H](c2c(F)cc(NC3CN(CCCF)C3)cc2F)N1CC(F)F [Example 430, N-[4-[(1R,3R)-2-(2,2-difluoroethyl)-3-methyl-1,3,4,9-tetrahydropyrido[3,4-b]indol-1-yl]-3,5-difluoro-phenyl]-1-(3-fluoropropyl)azetidin-3-amine] |  | EC50 (ER-alpha MCF7; MCF7, MCF7 cells, Table 2): 0.065 nM
C[C@@H]1Cc2c([nH]c3ccc(F)cc23)[C@@H](c2c(F)cc(NC3CN(CCCF)C3)cc2F)N1C[C@@](C)(F)CO [Example 431, (R)-3-((1R,3R)-1-(2,6-difluoro-4-((1-(3-fluoropropyl)azetidin-3-yl)amino)phenyl)-6-fluoro-3-methyl-1,3,4,9-tetrahydro-2H-pyrido[3,4-b]indol-2-yl)-2-fluoro-2-methylpropan-1-ol] |  | EC50 (ER-alpha MCF7; MCF7, MCF7 cells, Table 2): 0.0943 nM
C[C@H]1Cc2c([nH]c3ccc(F)cc23)[C@H](c2c(F)cc(NC3CN(CCCF)C3)cc2F)N1C[C@](C)(F)CO [Example 432, (S)-3-((1S,3S)-1-(2,6-difluoro-4-((1-(3-fluoropropyl)azetidin-3-yl)amino)phenyl)-6-fluoro-3-methyl-1,3,4,9-tetrahydro-2H-pyrido[3,4-b]indol-2-yl)-2-fluoro-2-methylpropan-1-ol] |  | EC50 (ER-alpha MCF7; MCF7, MCF7 cells, Table 2): 3.27 nM
C[C@@H]1Cc2c([nH]c3ccc(F)cc23)[C@@H](c2c(F)cc(NC3CN(CCCF)C3)cc2F)N1C[C@](C)(F)CO [Example 433, (S)-3-((1R,3R)-1-(2,6-difluoro-4-((1-(3-fluoropropyl)azetidin-3-yl)amino)phenyl)-6-fluoro-3-methyl-1,3,4,9-tetrahydro-2H-pyrido[3,4-b]indol-2-yl)-2-fluoro-2-methylpropan-1-ol] |  | EC50 (ER-alpha MCF7; MCF7, MCF7 cells, Table 2): 0.0209 nM
C[C@H]1Cc2c([nH]c3ccc(F)cc23)[C@@H](c2c(F)cc(NC3CN(CCCF)C3)cc2F)N1C[C@@](C)(F)CO [Example 434, (R)-3-((1R,3S)-1-(2,6-difluoro-4-((1-(3-fluoropropyl)azetidin-3-yl)amino)phenyl)-6-fluoro-3-methyl-1,3,4,9-tetrahydro-2H-pyrido[3,4-b]indol-2-yl)-2-fluoro-2-methylpropan-1-ol] |  | EC50 (ER-alpha MCF7; MCF7, MCF7 cells, Table 2): 0.706 nM

More lines, main results first:

ER-alpha MCF7 HCS Sinf (%) [1] | SMILES | also measured
−71.3% | C[C@@H]1Cc2c([nH]c3ccccc23)[C@@H](c2c(F)cc(OCCN3CC(CO)C3)cc2F)N1CC(C)(C)F [Example 119, (1-(2-(3,5-difluoro-4-((1R,3R)-2-(2-fluoro-2-methylpropyl)-3-methyl-2,3,4,9-tetrahydro-1H-pyrido[3,4-b]indol-1-yl)phenoxy)ethyl)azetidin-3-yl)methanol] | 
−96.3% | C[C@@H]1Cc2c([nH]c3ccccc23)[C@@H](c2ccc(OCCN3CC(CF)C3)cc2F)N1CC(C)(C)F [Example 120, (1R,3R)-2-(2-fluoro-2-methylpropyl)-1-(2-fluoro-4-(2-(3-(fluoromethyl)azetidin-1-yl)ethoxy)phenyl)-3-methyl-2,3,4,9-tetrahydro-1H-pyrido[3,4-b]indole] | EC50 (ER-alpha MCF7; MCF7, MCF7 cells, Table 1): 0.0562 nM
−91% | CC(=O)N1[C@H](c2c(F)cc(OCCN3CC(CF)C3)cc2F)c2[nH]c3ccccc3c2C[C@H]1C [Example 121, 1-((1R,3R)-1-(2,6-difluoro-4-(2-(3-(fluoromethyl)azetidin-1-yl)ethoxy)phenyl)-3-methyl-3,4-dihydro-1H-pyrido[3,4-b]indol-2(9H)-yl)ethanone] | 
−97.8% | C[C@@H]1Cc2c([nH]c3ccccc23)[C@@H](c2c(F)cc(OCCN3CC(CF)C3)cc2F)N1C(=O)C(C)(C)O [Example 122, 1-((1R,3R)-1-(2,6-difluoro-4-(2-(3-(fluoromethyl)azetidin-1-yl)ethoxy)phenyl)-3-methyl-3,4-dihydro-1H-pyrido[3,4-b]indol-2(9H)-yl)-2-hydroxy-2-methylpropan-1-one] | EC50 (ER-alpha MCF7; MCF7, MCF7 cells, Table 1): 1.4 nM
−94.4% | C[C@@H]1Cc2c([nH]c3ccccc23)[C@@H](c2c(F)cc(OCCN3CC(CF)C3)cc2F)N1S(C)(=O)=O [Example 126, (1R,3R)-1-(2,6-difluoro-4-(2-(3-(fluoromethyl)azetidin-1-yl)ethoxy)phenyl)-3-methyl-2-(methylsulfonyl)-2,3,4,9-tetrahydro-1H-pyrido[3,4-b]indole] | 
